Experimental data: patent US11040036B2, “Pyruvate kinase activators for use in treating blood disorders” (Agios Pharmaceuticals, Inc., priority 2017, dated 2021)

Columns and labels:
wild type PKR [1] = biological target: T1, wild type PKR (Homo sapiens, UniProt P30613); experiment: PKR mutant assay (AC50), wild type PKR; type: biochemical; settings: wild type PKR enzyme; read-out: PKR WT AC50
Experimental: (§1) Example 11. PKR Mutant Assay
(§2) PKR or PKR mutant enzyme solution was diluted into a reaction mix, which contains 1× buffer (100 mM KCl, 50 mM Tris pH 7.5, 5 mM MgCl2) as well as PEP (cont depends on enzyme), 180 μM NADH, 0.5 units LDH, 1 mM DTT, 0.03% BSA; final assay concentrations after 1.11 fold dilution are indicated.
(§3) 2 μL of test compound was added into wells first, and then 180 μL reaction mix was added.
(§4) Reactions mixture with test compound was assembled except for ADP, and plates were stored for 60 minutes at room temperature.
(§5) 20 uL ADP was added to start reaction at room temperature and reaction progress was measured as changes in absorbance at 340 nm wavelength at room temperature.
(§6) Test Compound Preparation:
(§7) Test compound stock was made at 100× concentration in 100% DMSO (10 mM)
(§8) 1 to 3 dilutions were made for 11 points (i.e. 50 μl of first concentration added to 100 μl 100% DMSO to yield 3.33 mM, 50 μl of this added to 100 μl DMSO to yield 1.11 mM, and so forth) • 1 to 100 dilution into assay (2 μl in 200 μl) yielded starting concentration of 100 μM, decreasing 3 fold for 11 points.
(§9) Assay Buffer: 100 mM KCl, 50 mM Tris 7.5, 5 mM MgCl2, 1 ruM DTT, 0.03% BSA
(§10) Reaction Mixture: PKR mutant enzyme: 40-400 ng/well; ADP: 0.2-1.65 mM; PEP: 0.1-0.5 mM; NADH:180 μM; LDH: 0.5 units (Sigma #59023); DTT: 1 mM; BSA: 0.03%.

PKR K410E = PKR K410E (Homo sapiens, UniProt P30613, K410E); experiment: PKR mutant assay (AC50), PKR K410E; type: biochemical; settings: PKR K410E mutant enzyme
Chain of PKR K410E (P30613 whole entry K410E): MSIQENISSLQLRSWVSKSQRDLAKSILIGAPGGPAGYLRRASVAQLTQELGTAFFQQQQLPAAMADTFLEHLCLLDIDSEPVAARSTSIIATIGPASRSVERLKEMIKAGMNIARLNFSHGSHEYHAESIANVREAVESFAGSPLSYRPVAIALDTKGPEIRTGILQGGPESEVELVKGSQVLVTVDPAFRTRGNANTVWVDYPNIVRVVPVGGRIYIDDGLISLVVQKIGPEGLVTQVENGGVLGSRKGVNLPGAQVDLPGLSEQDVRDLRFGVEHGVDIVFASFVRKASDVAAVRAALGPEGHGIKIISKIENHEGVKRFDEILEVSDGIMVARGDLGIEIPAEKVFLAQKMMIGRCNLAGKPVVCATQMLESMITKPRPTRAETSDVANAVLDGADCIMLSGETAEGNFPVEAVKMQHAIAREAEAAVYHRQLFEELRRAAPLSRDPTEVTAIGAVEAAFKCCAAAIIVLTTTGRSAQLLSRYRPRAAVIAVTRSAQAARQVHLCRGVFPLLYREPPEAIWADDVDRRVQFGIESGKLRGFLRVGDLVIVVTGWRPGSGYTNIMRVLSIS
Experimental: as §1, §2, §3, §4, §5, §6, §7, §8, §9, §10

PKR R510Q = PKR R510Q (Homo sapiens, UniProt P30613, R510Q); experiment: PKR mutant assay (AC50), PKR R510Q; type: biochemical; settings: PKR R510Q mutant enzyme; read-out: PK R510Q AC50
Chain of PKR R510Q (P30613 whole entry R510Q): as the sequence (P30613 whole entry K410E) above, with E410K, R510Q counted along it
Experimental: as §1, §2, §3, §4, §5, §6, §7, §8, §9, §10

wild type PKR [2] = biological target: T1, wild type PKR; experiment: Cell based ATP assay in purified red blood cells; design: endogenous in cells; host or cells: purified red blood cells from blood of healthy volunteers; settings: RBCs, overnight at 37° C., ATP levels by Cell-Titer-Glo
Experimental: Example 16. Red Blood Cell (RBC) Purification
Fresh blood drawn from healthy volunteers into K2EDTA tubes was collected. Whole blood was pelleted by spinning at 500 g for 10 minutes. Cut transfusion bag port off of Purecell leukocyte reduction neofilter (Fisher NCO267633) one (1) inch above filter. Attach a 10 ml syringe barrel to the remaining cut tubing attached to neofilter. The plasma layer was removed from the pellet of the whole blood and the pellet was resuspended in 2× volume of phosphate buffered saline (PBS). Transfer 9 ml re-suspended blood cell pellet to prepared 10 ml syringe that is attached to the neofilter. Allow whole blood to gravity flow through filter until all fluid runs through upper tubing into filter disc. Add plunger to the syringe, remove syringe from clamp and invert the filter, then plunge air through the syringe filter system. Using a new 5 ml syringe, remove filtered RBCs from the bag by the syringe port and transfer purified RBCs to a 5 ml snap cap tube that has been incubated on ice. Spin 5 ml snap cap tube at 500 g for 10 minutes at 15 C, aspirate supernatant and resuspend in AGAM (1×PBS, 1% glucose, 170 mg/L adenine, 5.25 g/L mannitol) at a density of 4×10^9 cells/mL.
Example 17. Cell Based ATP Assay
For cell based ATP assays, the compound as described herein was prepared in 100% DMSO as a 10 mM stock. Serial dilutions (1:4) were performed in 96-well V-bottom storage plate and then added 1:100 to 96-well V-bottom plates containing AGAM. RBCs were diluted in AGAM media to a density of 1×10^7 cells/mL before added 90 μL/well to black clear bottom assay plates (final compound concentration at 0.1% DMSO concentration). Assay plates were sealed using aluminum foil seals and incubated overnight at 37° C. in a humidified chamber. ATP levels were read out using Cell-Titer-Glo (Promega).

T1 sequence (P30613 whole entry): as the sequence (P30613 whole entry K410E) above, with E410K counted along it

| AC50 (wild type PKR [1]) | AC50 (PKR K410E) | AC50 (PKR R510Q) | AC50 (wild type PKR [2]) | Compound |
| --- | --- | --- | --- | --- |
| < 300 nM | < 300 nM | < 300 nM | ≤ 1000 nM | Cn1c2nc(Cc3cc[nH]n3)sc2c2cnn(Cc3cccc(N)n3)c(=O)c21 |
| < 300 nM | < 300 nM | < 300 nM | ≤ 1000 nM | Cn1c2nc(Cc3cc[nH]n3)sc2c2cnn(Cc3csc(N)n3)c(=O)c21 |
| < 300 nM | < 300 nM | < 300 nM | ≤ 1000 nM | Cn1c2nc(Cc3cc[nH]n3)sc2c2cnn(Cc3nccs3)c(=O)c21 |
| < 300 nM | < 300 nM | < 300 nM | ≤ 1000 nM | Cn1c2nc(Cc3cc[nH]n3)sc2c2cnn(Cc3ncsc3Br)c(=O)c21 |
| < 300 nM | < 300 nM | < 300 nM | ≤ 1000 nM | Cn1c2nc(Cc3n[nH]cc3F)sc2c2cnn(Cc3cc[nH]n3)c(=O)c21 |
| < 300 nM | < 300 nM | < 300 nM | ≤ 1000 nM | Cn1c2nc(Cc3cc[nH]n3)sc2c2cnn(Cc3cc(F)[nH]n3)c(=O)c21 |
| < 300 nM | < 300 nM | < 300 nM | ≤ 1000 nM | COc1scnc1Cn1ncc2c3sc(Cc4cc[nH]n4)nc3n(C)c2c1=O |
| < 300 nM | < 300 nM | < 300 nM | ≤ 1000 nM | Cc1scnc1Cc1nc2c(s1)c1cnn(Cc3c[nH]nn3)c(=O)c1n2C |
| 301 to 800 nM | 301 to 800 nM | > 800 nM | > 1000 nM | Cn1c2nc(Cc3cc[nH]n3)sc2c2cnn(Cc3cc(C(N)=O)[nH]n3)c(=O)c21 |
| < 300 nM | < 300 nM | < 300 nM | ≤ 1000 nM | Cn1c2nc(Cc3ncsc3F)sc2c2cnn(Cc3cc[nH]n3)c(=O)c21 |
| < 300 nM | < 300 nM | < 300 nM | ≤ 1000 nM | Cn1cc(Cn2ncc3c4sc(Cc5cc[nH]n5)nc4n(C)c3c2=O)nn1 |
| < 300 nM | < 300 nM | < 300 nM | ≤ 1000 nM | Cn1c2nc(Cc3cc[nH]n3)sc2c2cnn(Cc3ccc(F)c(N)n3)c(=O)c21 |
| < 300 nM | < 300 nM | < 300 nM | ≤ 1000 nM | Cn1ccc(Cn2ncc3c4sc(Cc5n[nH]cc5F)nc4n(C)c3c2=O)n1 |
| < 300 nM | < 300 nM | < 300 nM | ≤ 1000 nM | Cn1c2nc(Cc3ncsc3F)sc2c2cnn(Cc3c[nH]nn3)c(=O)c21 |
| < 300 nM | < 300 nM | < 300 nM | ≤ 1000 nM | Cn1c2nc(Cc3cc[nH]n3)sc2c2cnn(Cc3ccccn3)c(=O)c21 |
| < 300 nM | < 300 nM | < 300 nM | ≤ 1000 nM | CNc1ccc(F)c(Cn2ncc3c4sc(Cc5cc[nH]n5)nc4n(C)c3c2=O)n1 |
| < 300 nM | < 300 nM | < 300 nM | ≤ 1000 nM | Cn1c2nc(Cc3cc[nH]n3)sc2c2cnn(Cc3cccc(NO)n3)c(=O)c21 |
| < 300 nM | < 300 nM | < 300 nM | ≤ 1000 nM | Cn1c2nc(Cc3cc[nH]n3)sc2c2cnn(Cc3cc(F)cc(N)n3)c(=O)c21 |
| < 300 nM | < 300 nM | < 300 nM | ≤ 1000 nM | Cc1ccc(Cn2ncc3c4sc(Cc5cc[nH]n5)nc4n(C)c3c2=O)nc1N |
| < 300 nM | < 300 nM | < 300 nM | ≤ 1000 nM | Cn1cc(F)c(Cn2ncc3c4sc(Cc5cc[nH]n5)nc4n(C)c3c2=O)n1 |

The remaining lines, values behind:

| Compound | AC50 (wild type PKR [1]) | AC50 (PKR K410E) | AC50 (PKR R510Q) | AC50 (wild type PKR [2]) |
| --- | --- | --- | --- | --- |
| Cc1ccc(Cn2ncc3c4sc(Cc5cc[nH]n5)nc4n(C)c3c2=O)nc1Cl | < 300 nM | < 300 nM | < 300 nM | ≤ 1000 nM |
| Cn1c2nc(Cc3nc(N)sc3F)sc2c2cnn(Cc3c[nH]nn3)c(=O)c21 | < 300 nM | < 300 nM | < 300 nM | ≤ 1000 nM |
| CCOC(c1cscn1)c1nc2c(s1)c1cnn(Cc3c[nH]nn3)c(=O)c1n2C (stereo not drawn) | > 800 nM | > 800 nM | > 800 nM | > 1000 nM |
| Cn1c2nc(Cc3cc[nH]n3)sc2c2cnn(Cc3cccnc3)c(=O)c21 | < 300 nM | < 300 nM | < 300 nM | ≤ 1000 nM |
| Cn1c2nc(Cc3cc[nH]n3)sc2c2cnn(Cc3ccncc3)c(=O)c21 | < 300 nM | < 300 nM | < 300 nM | ≤ 1000 nM |
| Cn1c2nc(Cc3cc[nH]n3)sc2c2cnn(Cc3ccc(=O)[nH]c3)c(=O)c21 | < 300 nM | < 300 nM | < 300 nM | ≤ 1000 nM |
| Cn1c2nc(Cc3cc[nH]n3)sc2c2cnn(Cc3cc[nH]c(=O)c3)c(=O)c21 | < 300 nM | < 300 nM | 301 to 800 nM | ≤ 1000 nM |
| Cn1ccc(Cc2nc3c(s2)c2cnn(Cc4c[nH]nn4)c(=O)c2n3C)n1 | < 300 nM | < 300 nM | < 300 nM | ≤ 1000 nM |
| Cn1ccc(Cc2nc3c(s2)c2cnn(Cc4ccn(C)n4)c(=O)c2n3C)n1 | < 300 nM | < 300 nM | < 300 nM | ≤ 1000 nM |
| Cn1c2nc(Cn3cc[nH]c3=O)sc2c2cnn(Cc3cc[nH]n3)c(=O)c21 | < 300 nM | < 300 nM | < 300 nM | ≤ 1000 nM |
| Cn1c2nc(Cc3cc[nH]n3)sc2c2cnn(Cc3ccc[nH]c3=O)c(=O)c21 | < 300 nM | < 300 nM | < 300 nM | ≤ 1000 nM |
| COc1ncccc1Cn1ncc2c3sc(Cc4cc[nH]n4)nc3n(C)c2c1=O | < 300 nM | < 300 nM | < 300 nM | ≤ 1000 nM |
| CC(=O)Nc1ccc(F)c(Cn2ncc3c4sc(Cc5cc[nH]n5)nc4n(C)c3c2=O)n1 | > 800 nM | > 800 nM | < 300 nM | > 1000 nM |
| COc1ccc(Cn2ncc3c4sc(Cc5cc[nH]n5)nc4n(C)c3c2=O)cn1 | < 300 nM | < 300 nM | < 300 nM | ≤ 1000 nM |
| COc1cc(Cn2ncc3c4sc(Cc5cc[nH]n5)nc4n(C)c3c2=O)ccn1 | < 300 nM | < 300 nM | < 300 nM | ≤ 1000 nM |
| CNc1ccc(F)c(Cc2nc3c(s2)c2cnn(Cc4c[nH]nn4)c(=O)c2n3C)n1 | < 300 nM | < 300 nM | < 300 nM | ≤ 1000 nM |
| Cn1c2nc(Cc3n[nH]cc3F)sc2c2cnn(Cc3n[nH]cc3F)c(=O)c21 | < 300 nM | < 300 nM | < 300 nM | ≤ 1000 nM |
| COc1cccc(Cn2ncc3c4sc(Cc5cc[nH]n5)nc4n(C)c3c2=O)n1 | < 300 nM | < 300 nM | < 300 nM | ≤ 1000 nM |
| Cn1c2nc(Cc3ccccn3)sc2c2cnn(Cc3ccccn3)c(=O)c21 | < 300 nM | < 300 nM | 301 to 800 nM | ≤ 1000 nM |
| Cn1c2nc(Cc3cc[nH]n3)sc2c2cnn(Cc3cccc(=O)[nH]3)c(=O)c21 | < 300 nM | < 300 nM | 301 to 800 nM | > 1000 nM |
| Cn1c2nc(Cc3n[nH]cc3F)sc2c2cnn(Cc3c[nH]nn3)c(=O)c21 | < 300 nM | < 300 nM | < 300 nM | ≤ 1000 nM |
| Cn1c2nc(Cn3ccc(N)n3)sc2c2cnn(Cc3cc[nH]n3)c(=O)c21 | < 300 nM | < 300 nM | < 300 nM | ≤ 1000 nM |
